3 compounds from US20050101002A1, “Process for production of low temperature active alkaline protease from a deep-sea fungus” (COUNCIL OF SCIENTIFIC & INDUSTRIAL RESEARCH, priority 2003, published 2005) can be followed below.

As usually defined, the % inhibition is the share of the control response that was lost under treatment.

“Also recorded” adds a separate entry of the source.

This experiment relates to protease of Aspergillus sp. MTCC 5102. As to the kind of experiment: Protease assayed in the presence of EDTA, PMSF, HgCl2. The format is biochemical. The conditions noted are these: for Inhibition of protease activity (in words): assayed in the presence of the additive. The procedure: The said fungus Aspergillus sp. MTCC 5102 is grown in malt extract broth containing 2% malt extract and 0.3% peptone in sea water. The 7-day old fungal mat obtained this way was macerated and used as a starter inoculum for the experimental cultures containing glucose or cellulose at a concentration of 1% (w/v). Casein, spray-dried dairy whitener, soybean meal, molasses or corn steep liquor at a 1% concentration was used as the organic nitrogen source. The Czapek Dox broth to which the above mentioned nitrogen-containing substrates were added independently, contained 10 g glucose, 2 g NaNO3, 1 g K2HPO4, 0.5 g MgSO4, 0.5 g KCl and 0.01 g Fe2SO4 L^−1 medium. The pH of the medium was adjusted to 7.0 or 9.0. This medium was prepared with distilled water or sea water. The cultures were grown as shallow static cultures for 4-6 days. The cell-free clear supernatant obtained after filtration through GF/F filters followed by 0.22 μm Nuclepore filters was used as the source of alkaline protease. Protease activity was measured using Azocasein (Sigma Chemicals, Mo, USA) at 2% concentration. Azocasien Units (ACU) released at various temperatures and pH combinations were measured at 440 nm and expressed as an increase in absorbance by 0.001 in 1 minute (Alfredsson, G. A, Gudmundsson H. M., Xiang J. Y., Kristjansson M. M. 1995, Subtilisin-like serine proteases from psychrophilic marine bacteria. J. Mar. Biotech. 3: 71-72). Substrate and enzyme blanks were maintained for all the assays. All the assays were run in triplicates.
The said fungus Aspergillus sp. MTCC 5102 was grown as described in Example 1 and the clear supernatant was used for testing whether the protease enzyme was serine or metalloprotease. For this purpose the enzyme was assayed in the presence of 50 mM […] (EDTA), 2 mM phenylmethylsulfonyl fluoride (PMSF) and 200 μM mercuric chloride (HgCl2).

`O=C(O)CN(CCN(CC(=O)O)CC(=O)O)CC(=O)O` [EDTA, ethylenediamine tetraacetic acid]: the “Inhibition of protease activity (in words)” value (shortened to “Inhibition … (in words)”) is given as “not inhibited; also recorded: no inhibition of activity”. Besides, under “50 mM”, the “% inhibition” value worked out at 6% and the “Residual specific activity (%)” value is recorded as 94%.
In the case of `[Cl][Hg][Cl]` [HgCl2, mercuric chloride], the “Inhibition … (in words)” value is “not inhibited”. Besides, under “200 μM”, the “% inhibition” value came to 14% and the “Residual specific activity (%)” value worked out at 86%.
Regarding `O=S(=O)(F)Cc1ccccc1` [PMSF, phenylmethylsulfonyl fluoride], the “Inhibition … (in words)” value was “totally inhibited; also recorded: inhibition of the activity”. For the same compound, where the note is “2 mM”, the “% inhibition” value is on record as 100% and the “Residual specific activity (%)” value stood at 0%.
